Like-named read-outs stand apart in the source and are kept apart here.
Key:
[1] = test system: ERK1/2 phosphorylation in A-427 cells; assay: Basal ERK1/2 phosphorylation assay (MSD); type: cell-based; settings: Homo sapiens; A-427, lung, KRAS p.G12D heterozygous; 2-hour treatment
Method: (§1) For cellular assays, 2.5E+04 cells were seeded per well in 96-well plates and incubated at 37° C., 5% CO2, o/n. The following day, 3-fold serially-diluted compound or DMSO was added to the cells, and the plates were incubated at 37° C., 5% CO2 for 2 hours. […] Signal intensity corresponded with phospho-ERK1/2 levels and was normalized DMSO control.

[2] = test system: ERK1/2 phosphorylation in A549 cells; assay: Basal ERK1/2 phosphorylation assay (MSD); type: cell-based; settings: Homo sapiens; A549, lung, KRAS p.G12S homozygous; 2-hour treatment
Method: as §1

[3] = test system: ERK1/2 phosphorylation in AsPC-1 cells; assay: Basal ERK1/2 phosphorylation assay (MSD); type: cell-based; settings: Homo sapiens, ASPC1; AsPC-1, pancreas, KRAS p.G12D homozygous; 2-hour treatment
Method: as §1

[4] = test system: ERK1/2 phosphorylation in COLO-205 cells; assay: Basal ERK1/2 phosphorylation assay (MSD); type: cell-based; settings: Homo sapiens; COLO-205, colon, KRAS WT BRAF p.V600E; 2-hour treatment
Method: as §1

[5] = test system: ERK1/2 phosphorylation in Calu-1 cells; assay: Basal ERK1/2 phosphorylation assay (MSD); type: cell-based; settings: Homo sapiens; Calu-1, lung, KRAS p.G12C heterozygous; 2-hour treatment
Method: as §1

[6] = test system: ERK1/2 phosphorylation in HCC-827 cells; assay: Basal ERK1/2 phosphorylation assay (MSD); type: cell-based; settings: Homo sapiens, HCC827; HCC-827, lung, KRAS WT EGFR p.E746_A750del; 2-hour treatment
Method: as §1

[7] = test system: ERK1/2 phosphorylation in KM12 cells; assay: Basal ERK1/2 phosphorylation assay (MSD); type: cell-based; settings: Homo sapiens; KM12, colon, KRAS WT TPM3-NTRK fusion; 2-hour treatment; read-out: Basal p-ERK1/2 IC50
Method: as §1

[8] = test system: ERK1/2 phosphorylation in LS 174T cells; assay: Basal ERK1/2 phosphorylation assay (MSD); type: cell-based; settings: Homo sapiens, LS174T, colon, KRAS p.G12D heterozygous, 2-hour treatment
Method: as §1

[9] = test system: ERK1/2 phosphorylation in MIA PaCa-2 cells; assay: Basal ERK1/2 phosphorylation assay (MSD); type: cell-based; settings: Homo sapiens, 2-hour treatment
Method: as §1

[10] = test system: ERK1/2 phosphorylation in NCI-H1322 cells; assay: Basal ERK1/2 phosphorylation assay (MSD); type: cell-based; settings: Homo sapiens, 2 h, read-out: Basal p-ERK1/2 IC50
Method: as §1

[11] = test system: ERK1/2 phosphorylation in NCI-H1355 cells; assay: Basal ERK1/2 phosphorylation assay (MSD); type: cell-based; settings: Homo sapiens; NCI-H1355, lung, KRAS p.G13C heterozygous; 2-hour treatment
Method: as §1

[12] = test system: ERK1/2 phosphorylation in NCI-H1373 cells; assay: Basal ERK1/2 phosphorylation assay (MSD); type: cell-based; settings: Homo sapiens; NCI-H1373, lung, KRAS p.G12C homozygous; 2-hour treatment
Method: as §1

[13] = test system: ERK1/2 phosphorylation in NCI-H1792 cells; assay: Basal ERK1/2 phosphorylation assay (MSD); type: cell-based; settings: Homo sapiens; NCI-H1792, lung, KRAS p.G12C heterozygous; 2-hour treatment
Method: as §1

[14] = test system: ERK1/2 phosphorylation in NCI-H2030 cells; assay: Basal ERK1/2 phosphorylation assay (MSD); type: cell-based; settings: Homo sapiens; NCI-H2030, lung, KRAS p.G12C homozygous; 2-hour treatment
Method: as §1

[15] = test system: ERK1/2 phosphorylation in NCI-H2122 cells; assay: Basal ERK1/2 phosphorylation assay (MSD); type: cell-based; settings: Homo sapiens; NCI-H2122, lung, KRAS p.G12C homozygous; 2-hour treatment
Method: as §1

[16] = test system: ERK1/2 phosphorylation in NCI-H23 cells; assay: Basal ERK1/2 phosphorylation assay (MSD); type: cell-based; settings: Homo sapiens; NCI-H23, lung, KRAS p.G12C heterozygous; 2-hour treatment
Method: as §1

[17] = test system: ERK1/2 phosphorylation in NCI-H358 cells; assay: Basal ERK1/2 phosphorylation assay (MSD); type: cell-based; settings: Homo sapiens
Method: as §1

[18] = test system: ERK1/2 phosphorylation in SW1463 cells; assay: Basal ERK1/2 phosphorylation assay (MSD); type: cell-based; settings: Homo sapiens; SW1463, colon, KRAS p.G12C homozygous; 2-hour treatment
Method: as §1

[19] = test system: ERK1/2 phosphorylation in SW1573 cells; assay: Basal ERK1/2 phosphorylation assay (MSD); type: cell-based; settings: Homo sapiens; SW1573, lung, KRAS p.G12C homozygous; 2-hour treatment
Method: as §1

[20] = test system: ERK1/2 phosphorylation in SW480 cells; assay: Basal ERK1/2 phosphorylation assay (MSD); type: cell-based; settings: Homo sapiens; SW480, colon, KRAS p.G12V homozygous; 2-hour treatment
Method: as §1

[21] = test system: ERK1/2 phosphorylation in SW837 cells; assay: Basal ERK1/2 phosphorylation assay (MSD); type: cell-based; settings: Homo sapiens; SW837, colon, KRAS p.G12C heterozygous; 2-hour treatment
Method: as §1

[22] = test system: ERK1/2 phosphorylation in UM-UC-3 cells; assay: Basal ERK1/2 phosphorylation assay (MSD); type: cell-based; settings: Homo sapiens, UMUC3; UM-UC-3, bladder, KRAS p.G12C homozygous; 2-hour treatment
Method: as §1

[23] = test system: COLO-205 cells; assay: Cell viability assay (CellTiter-Glo, adherent); type: cell-based; settings: Homo sapiens, COLO-205, colon, KRAS WT BRAF p.V600E, 72-hour treatment
Method: For adherent viability assays, 0.5-1.0E+03 cells were seeded per well in 384-well plates (or 2.5-4.0E+04 cells per well in 96-well plates) and incubated at 37° C., 5% CO2, o/n. The following day, serially-diluted compound or DMSO was added to the cells, and the plates were incubated at 37° C., 5% CO2 for 72 hours. Cell viability was measured using a CellTiter-Glo® Luminescent Cell Viability Assay kit (Promega) according to the manufacturer's protocol. The luminescence signal of treated samples was normalized to DMSO control.

[24] = test system: ERK1/2 phosphorylation in NCI-H358 tumors; assay: Tumor pharmacodynamic assay (p-ERK, MSD immunoassay); settings: Mus musculus, NCI-H358, po, 2 h, read-out: inhibition of p-ERK, reduction compared to control

In the case of `C=CC(=O)N1CCN(c2nc(=O)n(-c3c(C)ccnc3C(C)C)c3nc(-c4c(O)cccc4F)c(F)cc23)[C@@H](C)C1` (atropisomer, axis not shown) [AMG 510, 6-fluoro-7-(2-fluoro-6-hydroxyphenyl)-1-(4-methyl-2-(2-propanyl)-3-pyridinyl)-4-((2S)-2-methyl-4-(2-propenoyl)-1-piperazinyl)pyrido[2,3-d]pyrimidin-2(1H)-one], the IC50 [1] is reported as over 10000 nM, the IC50 [2] is reported as over 10000 nM and the IC50 [3] is reported as over 10000 nM. It also gave an IC50 [4] of over 10000 nM, an IC50 [5] of 13 ± 4 nM and an IC50 [6] of over 10000 nM. It also gave an IC50 [7] of over 10000 nM, an IC50 [8] of over 10000 nM and an IC50 ([9]; second of two KRASp.G12C cell lines (FIG. 40E: MIA PaCa-2), read-out: p-ERK IC50) of about 30 nM. It also gave an IC50 ([9]; MIA PaCa-2, pancreas, KRAS p.G12C homozygous, read-out: Basal p-ERK1/2 IC50) of 36 ± 2 nM, an IC50 [10] of over 10000 nM and an IC50 [11] of over 10000 nM. It also gave an IC50 [12] of 10 ± 0.1 nM, an IC50 [13] of 45 ± 23 nM and an IC50 [14] of 40 ± 20 nM. The IC50 [15] was 123 ± 6 nM, the IC50 [16] was 90 ± 17 nM and the IC50 ([17]; NCI-H358, 2 h, read-out: p-ERK IC50) was about 20 nM. For the same molecule, the IC50 ([17]; NCI-H358, lung, KRAS p.G12C heterozygous, 2-hour treatment, read-out: Basal p-ERK1/2 IC50) was 35 ± 3 nM, the IC50 [18] was 33 ± 4 nM and the IC50 [19] was 27 ± 1 nM. The IC50 [20] was over 10000 nM, the IC50 [21] was 18 ± 2 nM and the IC50 [22] was 29 ± 16 nM. The IC50 [23] was over 7500 nM and the inhibition at 100 mg/kg [24] was 83%.

From patent US12582657B2, “Combination therapy including a KRAS G12C inhibitor and one or more additional pharmaceutically active agents for the treatment of cancers” (Amgen Inc., priority 2018, dated 2026)
